Broadly, the EC50 is the concentration that produces a half-maximal response. Usually IC50 stands for the concentration needed to halve the response being measured. Read a high IC50 as weaker potency.

The results in this text go back to PubChem BioAssay AID179 (DTP/NCI, 2004).

This test relates to CEM cells HIV-1 protection, formazan growth assay. The test is described as follows: NCI AIDS Antiviral Assay. To be noted: for IC50: measured here: growth of uninfected CEM cells. In a few lines: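 Five concentrations of each compound were applied to infected and uninfected human CEM cells. Protection from HIV-1 was judged from growth measured with a soluble formazan assay.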

Activity calls are given as the source filed them.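 The calls were made as follows: active = compounds giving half or more protection of infected cells from virus-caused growth loss, again on retest; inactive = the rest.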 A value given as a limit tells only on which side of the number the result lay.

As for `Cc1cc(C)c(SSc2c(C)cc(C)cc2C)c(C)c1`, the EC50 was more than 200 µM and the IC50 stood at 28.2 µM.
For the molecule `CN(C(=O)C12C3C4C1C1C2C3C41C(=O)N(C)C(C)(C)C)C(C)(C)C` (stereo not given), the EC50 is more than 30.2 µM and the IC50 was more than 30.2 µM.
Take `COc1ccc(N2C=Nn3c(nc4sc5c(c4c3=O)CCCC5)C2)cc1`: the EC50 was more than 50.1 µM and the IC50 is more than 50.1 µM.
Regarding `O=c1c2ccccc2c2cc3ccc4c(=O)c5ccccc5c5cc6ccc1c2c6c3c45`, the EC50 was more than 200 µM and the IC50 is more than 200 µM.
Turning to `C=C1C(C)C2C(Cc3ccccc3)NC(=O)C23OC(=O)/C=C\CC(=O)CCC(C)C/C=C/C3C1O` (stereo not given), the EC50 is more than 38.9 µM and the IC50 was determined as 1.45 µM.
For `Cn1c(COc2ccc(/C=N\NC(=O)c3ccc(C(=O)N/N=C/c4ccc(OCc5c[n+]6ccccc6n5C)cc4)cc3)cc2)c[n+]2ccccc12`, in that order: 4.57 µM and 9.55 µM.
In the case of `O=C(Nc1cc2c(oc1=O)CCCCC2)c1cnccn1`, the EC50 was more than 100 µM and the IC50 was more than 100 µM.
As for `c1ccc(N2N=NC3CCCC32)cc1` (stereo not given), the EC50 is more than 200 µM and the IC50 was determined as 95.5 µM.
For `O=C(O)c1ccc(NCc2nc3ccccc3[nH]2)cc1`, in that order: more than 200 µM and more than 200 µM.
For `C/C(CC(O)(/C=N/O)c1ccccc1)=N/O` (stereo not given), in that order: more than 200 µM and more than 200 µM.
The matching figures for `O=C(Nc1cc(C(=O)Nc2ccc(C3=NCCN3)cc2)cc(C2=NCCN2)c1)c1ccc(C(=O)Nc2cc(C(=O)Nc3ccc(C4=NCCN4)cc3)cc(C3=NCCN3)c2)cc1`: 5.37 µM and 89.1 µM.
Take `C[N+](C)(CCCCCC[N+](C)(C)C1c2ccccc2-c2ccccc21)C1c2ccccc2-c2ccccc21`: the EC50 was more than 200 µM and the IC50 came out at 182 µM.
As for `NC(=S)N/N=C1\CC(c2ccccc2)Nc2ccccc21` (stereo not given), the result was inactive.
As for `COC(=O)c1c(C)cccc1C1CN=NC12Cc1ccc(C)cc1C2=O` (stereo not given), the EC50 is more than 72.4 µM and the IC50 came out at 41.7 µM.
The matching figures for `Nc1scc2[nH]c3ccccc3[n+]12`: more than 200 µM and 15.5 µM.
For `CNC(=O)N(CCC#N)CCN(CCN(C(=O)NC)c1ccccc1)C(=O)NC`, the EC50 was more than 200 µM and the IC50 was more than 200 µM.
As for `CCN(CC)CC(=O)Nc1cc(C)ccc1Cl`, the EC50 was more than 200 µM and the IC50 is more than 200 µM.
In the case of `CCCC/C(C)=N/NC(N)=S`, the result was inactive.
Regarding `CCOC1(OCC)CS(=O)(=O)C1c1ccc([N+](=O)[O-])cc1` (stereo not given), the EC50 was more than 200 µM and the IC50 is more than 200 µM.
On to `Cc1ccc2c(c1)-c1[nH]c3ccccc3c1CS2`, for which the result was inactive.
The same measure, in the same setting: the entry for `CN1C(=O)CCC2[C@@H]3CC=C4C[C@@H](O)CC[C@]4(C)C3CC[C@@]21C` (stereo not given in full) is “inactive”.
In the case of `NN1C(=O)CSC1=S`, the EC50 is more than 912 µM and the IC50 worked out at 295 µM.
For `CN(C)C=Nc1c(I)cc(I)c(CCC(=O)O)c1I`, in that order: more than 200 µM and more than 200 µM.
The matching figures for `CC(C)Oc1ccc(CNC2=NCCO2)c2ccccc12`: more than 200 µM and 17.8 µM.
For `O=C1CCC(=O)N1C(c1ccccc1)(c1ccccc1)N1C(=O)CCC1=O`, in that order: more than 200 µM and 15.1 µM.
As for `COC(=O)/C(=N\N)C(C(=O)C(=O)Nc1cc(Cl)ccc1Cl)c1nc2ccc([N+](=O)[O-])cc2[nH]c1=O` (stereo not given), the EC50 was more than 182 µM and the IC50 came to 83.2 µM.
The matching figures for `O=S1(=O)CSc2ccc3ccccc3c2-c2c1ccc1ccccc21`: more than 27.5 µM and more than 27.5 µM.
For `CC(=O)NC(C)c1ccc(N=NN2CCCC2)cc1` (stereo not given), in that order: more than 200 µM and 79.4 µM.
Regarding `CCOc1ccc(N2CC(=O)N3CCCC(C)N3C(=O)C2)cc1` (stereo not given), the EC50 was more than 200 µM and the IC50 turned out to be 170 µM.
`COc1cc(OC)c(SSCCCCS(=O)O)c(OC)c1`: the result was inactive.
Consider `CCCCCCCCCCCCC(=O)NC1=C(O)c2ccccc2C(=O)C1=O`, for which the result was inactive.
For `O=C(CCCCCCCCC(=O)NCC1(c2ccccc2)CCN(Cc2ccccc2)CC1)NCC1(c2ccccc2)CCN(Cc2ccccc2)CC1`, the EC50 was more than 200 µM and the IC50 amounted to 102 µM.
With `C[n+]1cn(CC(=O)c2ccccc2)c(C(N)=O)c1N`, the EC50 was more than 263 µM and the IC50 came out at 214 µM.
The matching figures for `CC(=O)O[C@H]1CCCC[C@H]1c1ccccc1`: more than 309 µM and more than 309 µM.
For `COc1cccc(/C=C/c2cnc3ccccc3n2)c1OC`, in that order: more than 200 µM and 151 µM.
With `COc1cc(C(c2ccc(N(Cc3ccccc3)Cc3ccccc3)cc2NC(C)=O)c2ccc(N(Cc3ccccc3)Cc3ccccc3)cc2NC(C)=O)ccc1O`, the EC50 is more than 200 µM and the IC50 is more than 200 µM.
Consider `CN1C2C=CC(=O)C1C1C(=O)N(c3ccccc3)C(=O)C12` (stereo not given), for which the EC50 was more than 891 µM and the IC50 is 5.25 µM.
Turning to `Cc1cc(N(CCC#N)CCC#N)ccc1C=Nc1ccc(C(=O)NN2C(=O)/C(=C/c3ccc(N(CCC#N)CCC#N)cc3)N=C2c2cc([N+](=O)[O-])ccc2Cl)cc1`, the EC50 is more than 44.7 µM and the IC50 is more than 44.7 µM.
For the molecule `CCOC(=O)c1cc(-c2ccc([N+](=O)[O-])cc2)c([N+](=O)[O-])[nH]1`, the EC50 is more than 200 µM and the IC50 was found to be 7.94 µM.
For `CCN1C(=O)C(=O)C(CC)(CC)C1=O`, in that order: more than 200 µM and more than 200 µM.
`Clc1ccc(N=c2ccc3ccccc3[oH+]2)cc1.Clc1ccc(N=c2ccc3ccccc3[oH+]2)cc1.[Ni]`: the outcome was inactive.
For `COc1ccc2c(=O)c3ccoc3[nH]c2c1`, the EC50 was more than 100 µM and the IC50 is more than 100 µM.
On to `CCOC1OC(CO[Si](C)(C)C(C)(C)C)C(O)CC1n1ccc(=O)[nH]c1=O` (stereo not given), for which the EC50 is more than 200 µM and the IC50 is 31.6 µM.
Take `CSC(C)CS(=O)(=O)O` (stereo not given): the EC50 was more than 200 µM and the IC50 was more than 200 µM.
As to `CC1CC12OC(=O)N(c1cc(Cl)cc(Cl)c1)C2=O` (stereo not given), the EC50 is more than 200 µM and the concentration for half-maximal inhibition (IC50) worked out at 31.6 µM.
With `CCOC(=O)/C=C/c1ccc2c(c1)OC(CO)[C@H](c1ccc(O)c(OC)c1)O2` (stereo not given in full), the EC50 is more than 339 µM and the IC50 is 77.6 µM.
With `COc1ccc2c(ccc3c(C(=O)NCCCN(C)CCCNC(=O)c4cn(C)c5c4ccc4cc(OC)ccc45)cn(C)c32)c1`, the EC50 is more than 200 µM and the IC50 was 1.15 µM.
Consider `CC(=O)OC(C(=O)[O][Ge]([CH3])([CH3])[CH3])c1ccccc1` (stereo not given), for which the outcome was inactive.
Consider `CC(CSC(=N)N)C(N)=O` (stereo not given), for which the EC50 was more than 200 µM and the IC50 is more than 200 µM.
Turning to `CCC/C(=N\NC(=S)N1CC2CCC(CC2)C1)c1ccccn1`, the EC50 is more than 6.76 µM and the IC50 was found to be 0.148 µM.
For `NC(N)=N/N=C/c1c(-c2ccc(Cl)cc2)nc2sccn12`, in that order: more than 200 µM and 3.39 µM.
Turning to `O=C1/C(=C/c2ccc(O)c(O)c2)CC/C1=C\c1ccc(O)c(O)c1`, the EC50 is more than 200 µM and the IC50 came out at 10.7 µM.
`O=S(=O)(Nc1nc2ccccc2nc1N1CCCCCC1)c1ccccc1`: the EC50 was more than 200 µM and the IC50 was found to be 33.9 µM.
Regarding `Cc1cc2c(C(C)C)c(O)c(O)c3coc(/c1=c1/c(C)cc4c(C(C)C)c(=O)c(=O)c5coc1c45)c32`, the EC50 is more than 53.7 µM and the IC50 was 8.91 µM.
The matching figures for `O=C(O)CSC1=NNC2(C(=O)N1)c1ccccc1-c1ccccc12`: more than 200 µM and 58.9 µM.
The matching figures for `Cc1cc(C=C2C(=O)NC(=S)NC2=O)c(C)n1-c1ccccc1`: more than 6.17 µM and more than 6.17 µM.
Consider `O=C1C=CC(=O)C2C1C1CC3C=CC312` (stereo not given), for which the EC50 was more than 1350 µM and the IC50 is more than 1350 µM.
In the case of `COc1ccc2oc(=N)c(C(=O)Nc3ccccc3)cc2c1`, the EC50 was more than 200 µM and the half-maximal inhibitory concentration (IC50) came out at 12 µM.
For `NCCSC(C[N+](=O)[O-])c1ccccc1Cl` (stereo not given), in that order: more than 200 µM and 2.19 µM.
`CC1(C)C2CC3OC3(C)C1C2` (stereo not given): the EC50 is more than 200 µM and the IC50 is more than 200 µM.
Regarding `O=c1[nH]c(=O)n(C2OC(CO)C(O)C2O)c(NNc2ccccc2)c1NNc1ccccc1` (stereo not given), the EC50 was 145 µM and the half-inhibitory concentration (IC50) is more than 200 µM.
On to `CC(=O)N1[C@H](C(=O)O)CS[C@H]1c1ccc(F)cc1`, for which the result was inactive.
With `O=C(CC1(O)C(=O)Nc2c(Cl)ccc(Cl)c21)c1ccco1` (stereo not given), the EC50 was more than 398 µM and the IC50 is 77.6 µM.
With `CC(=O)NC(=O)CC(=O)c1ccccc1`, the EC50 is more than 631 µM and the IC50 is more than 631 µM.
With `CC(=O)O[C@H]1C[C@H]2[C@@H](OC(C)=O)/C=C3\C[C@](C)(C(=O)[C@H](O)C(=C1C)C2(C)C)[C@@H](O)C[C@@H]3OC(=O)[C@H](O)[C@H](c1ccccc1)N(C)C`, the EC50 was more than 200 µM and the IC50 is more than 200 µM.
For `N#CC1(C#N)C(C#N)(C#N)C12CCCCCC2`, the outcome was inactive.
Consider `CC1(C)CCCCCCCCCC(C)(CCCCCCCCCCCCO)C1=O` (stereo not given), for which the EC50 was more than 200 µM and the IC50 came out at 18.6 µM.
For `CC1C(=O)C(C)C(c2cccs2)N(N=O)C1c1cccs1` (stereo not given), in that order: more than 58.9 µM and 37.2 µM.
For `COc1ccc(-c2c(O)c3cccc(-c4ccccc4)c3oc2=O)cc1`, in that order: more than 200 µM and 93.3 µM.
Take `c1ccc2c(c1)[nH]c1c2c(N2CCOCC2)nn2cnnc12`: the EC50 is more than 200 µM and the IC50 was more than 200 µM.
As to `CC1(C)CCc2ccc(OCCC(=O)O)cc2O1`, the outcome was inactive.
As to `CC(C)(C)OC(=O)N(CCCCNC(=O)C(F)(F)F)CCCNC(=O)C(F)(F)F`, the EC50 is more than 200 µM and the IC50 is more than 200 µM.
As for `[O-][n+]1c2ccccc2[n+]([O-])c2c3ccccc3[nH]c21`, the EC50 was more than 20.9 µM and the IC50 was more than 20.9 µM.
